# Reference: patent US11168364B2, “Method and system for sequencing nucleic acids” (priority 2016, dated 2021)
# Biological target: T1, Bsu DNA polymerase large fragment / primed template nucleic acid (Bacillus subtilis, UniProt O34996)
# T1 construct: 350 U/ml Bsu DNA polymerase large fragment
# T1 sequence (O34996 297-880 limits assumed): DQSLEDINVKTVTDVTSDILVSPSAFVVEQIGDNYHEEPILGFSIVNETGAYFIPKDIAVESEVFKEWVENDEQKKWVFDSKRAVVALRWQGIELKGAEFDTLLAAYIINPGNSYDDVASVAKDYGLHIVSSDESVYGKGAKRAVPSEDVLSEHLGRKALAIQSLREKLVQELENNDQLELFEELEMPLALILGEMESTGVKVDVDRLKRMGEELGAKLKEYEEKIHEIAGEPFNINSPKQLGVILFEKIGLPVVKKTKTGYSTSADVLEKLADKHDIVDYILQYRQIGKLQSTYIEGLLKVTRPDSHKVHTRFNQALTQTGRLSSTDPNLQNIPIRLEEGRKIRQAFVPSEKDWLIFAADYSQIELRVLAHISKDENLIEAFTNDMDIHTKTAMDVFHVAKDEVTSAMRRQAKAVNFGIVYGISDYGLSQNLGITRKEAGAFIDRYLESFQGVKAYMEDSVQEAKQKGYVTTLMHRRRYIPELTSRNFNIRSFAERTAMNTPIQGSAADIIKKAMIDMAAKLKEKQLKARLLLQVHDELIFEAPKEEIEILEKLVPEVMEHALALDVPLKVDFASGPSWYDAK
# Experiment: Biolayer interferometry of polymerase binding to immobilized primed template with cognate or non-cognate nucleotide, salt titration (Example 19)
# Conditions: for Ternary Complex Signal (Δλ, nm): dCTP (cognate); for Binary Complex Signal (Δλ, nm): dGTP (non-cognate)
# Description: A FORTEBIO® (Menlo Park, Calif.) OCTET® instrument employing biolayer interferometry to measure binding reactions at the surface of a fiber optic tip was used in a multiwell plate format to investigate differential stability of binary and ternary complexes. Template strands biotinylated at their 5′-ends were used to immobilize the primed template nucleic acid onto fiber optic tips functionalized with streptavidin (SA) according to standard procedures. […] Tips were first equilibrated in a Tris-buffered solution containing 30 mM Tris-HCl (pH 8.0), and 0.1 mM EDTA before commencing the cycling protocol. Independent binding reactions for the two test nucleotides (i.e., cognate and non-cognate nucleotides) were carried out in the presence of concentrations of NaCl, KCl, or potassium glutamate that varied from 50 mM to 500 mM. […] In all instances, the reaction mixture used during the examination step contained Tris-HCl (pH 8.0), 0.01% Tween-20, 100 μg/ml BSA, 2 mM NiSO4, 350 U/ml Bsu DNA polymerase large fragment; and one of the nucleotides at a concentration of 100 μM (dCTP was used as a cognate nucleotide, and dGTP was used as a non-cognate nucleotide). Following each examination step, tips were exposed to a buffer containing 30 mM Tris-HCl (pH 8.0), 500 mM KCl, 2 mM EDTA and 0.05% Tween-20 for 20 seconds to strip enzyme complexes from the primed template nucleic acid. The stripping step was followed by a 15 second exposure to examination buffer without enzyme, dNTP or divalent cations to regenerate tips for the next cycle of examination. When using a single contacting step to effect binding of polymerase and nucleotide to the primed template nucleic acid, the binding step was 45 seconds long, with binding interactions being monitored continuously. This was accomplished by contacting the primed template nucleic acid with a single solution that included the polymerase and test nucleotide. Results from interferometry monitoring were analyzed to identify formation of ternary complexes (i.e., identifying cognate nucleotide) or binary complexes (i.e., identifying non-cognate nucleotide).
# [1] = KCl 50 mM + fixed 160 mM potassium glutamate
# [2] = KCl 75 mM + fixed 160 mM potassium glutamate
# [3] = KCl 100 mM + fixed 160 mM potassium glutamate
# [4] = KCl 125 mM + fixed 160 mM potassium glutamate
# [5] = KCl 150 mM + fixed 160 mM potassium glutamate
# [6] = KCl 175 mM + fixed 160 mM potassium glutamate
# [7] = KCl 200 mM + fixed 160 mM potassium glutamate
# [8] = KCl 225 mM + fixed 160 mM potassium glutamate
# [9] = KCl 250 mM + fixed 160 mM potassium glutamate
# [10] = KCl 275 mM + fixed 160 mM potassium glutamate
# [11] = KCl 300 mM + fixed 160 mM potassium glutamate
# [12] = KCl 325 mM + fixed 160 mM potassium glutamate
# [13] = KCl 350 mM + fixed 160 mM potassium glutamate
# [14] = KCl 375 mM + fixed 160 mM potassium glutamate
# [15] = KCl 400 mM + fixed 160 mM potassium glutamate
# [16] = KCl 425 mM + fixed 160 mM potassium glutamate
# [17] = KCl 450 mM + fixed 160 mM potassium glutamate
# [18] = KCl 475 mM + fixed 160 mM potassium glutamate
# [19] = KCl 500 mM + fixed 160 mM potassium glutamate
smiles,measurement,setting,value
[Cl-].[K+] [KCl],Fold Enhancement (Ternary/Binary),KCl 50 mM,1.03
same,Fold Enhancement (Ternary/Binary),[1],1.24
same,"Ternary Complex Signal (Δλ, nm)",[1],1.57 nm
same,"Binary Complex Signal (Δλ, nm)",[1],1.27 nm
same,"Ternary Complex Signal (Δλ, nm)",KCl 50 mM,2.98 nm
same,"Binary Complex Signal (Δλ, nm)",KCl 50 mM,2.90 nm
same,Fold Enhancement (Ternary/Binary),KCl 75 mM,0.97
same,Fold Enhancement (Ternary/Binary),[2],1.41
same,"Ternary Complex Signal (Δλ, nm)",[2],1.49 nm
same,"Binary Complex Signal (Δλ, nm)",[2],1.06 nm
same,"Ternary Complex Signal (Δλ, nm)",KCl 75 mM,2.59 nm
same,"Binary Complex Signal (Δλ, nm)",KCl 75 mM,2.68 nm
same,Fold Enhancement (Ternary/Binary),KCl 100 mM,1.00
same,Fold Enhancement (Ternary/Binary),[3],1.71
same,"Ternary Complex Signal (Δλ, nm)",[3],1.52 nm
same,"Binary Complex Signal (Δλ, nm)",[3],0.89 nm
same,"Ternary Complex Signal (Δλ, nm)",KCl 100 mM,2.29 nm
same,"Binary Complex Signal (Δλ, nm)",KCl 100 mM,2.29 nm
same,Fold Enhancement (Ternary/Binary),KCl 125 mM,0.98
same,Fold Enhancement (Ternary/Binary),[4],2.05
same,"Ternary Complex Signal (Δλ, nm)",[4],1.44 nm
same,"Binary Complex Signal (Δλ, nm)",[4],0.70 nm
same,"Ternary Complex Signal (Δλ, nm)",KCl 125 mM,1.93 nm
same,"Binary Complex Signal (Δλ, nm)",KCl 125 mM,1.98 nm
same,Fold Enhancement (Ternary/Binary),KCl 150 mM,1.00
same,Fold Enhancement (Ternary/Binary),[5],2.46
same,"Ternary Complex Signal (Δλ, nm)",[5],1.40 nm
same,"Binary Complex Signal (Δλ, nm)",[5],0.57 nm
same,"Ternary Complex Signal (Δλ, nm)",KCl 150 mM,1.67 nm
same,"Binary Complex Signal (Δλ, nm)",KCl 150 mM,1.67 nm
same,Fold Enhancement (Ternary/Binary),KCl 175 mM,0.99
same,Fold Enhancement (Ternary/Binary),[6],3.31
same,"Ternary Complex Signal (Δλ, nm)",[6],1.30 nm
same,"Binary Complex Signal (Δλ, nm)",[6],0.39 nm
same,"Ternary Complex Signal (Δλ, nm)",KCl 175 mM,1.41 nm
same,"Binary Complex Signal (Δλ, nm)",KCl 175 mM,1.43 nm
same,Fold Enhancement (Ternary/Binary),KCl 200 mM,1.08
same,Fold Enhancement (Ternary/Binary),[7],4.15
same,"Ternary Complex Signal (Δλ, nm)",[7],1.19 nm
same,"Binary Complex Signal (Δλ, nm)",[7],0.29 nm
same,"Ternary Complex Signal (Δλ, nm)",KCl 200 mM,1.30 nm
same,"Binary Complex Signal (Δλ, nm)",KCl 200 mM,1.20 nm
same,Fold Enhancement (Ternary/Binary),KCl 225 mM,1.17
same,Fold Enhancement (Ternary/Binary),[8],5.35
same,"Ternary Complex Signal (Δλ, nm)",[8],1.12 nm
same,"Binary Complex Signal (Δλ, nm)",[8],0.21 nm
same,"Ternary Complex Signal (Δλ, nm)",KCl 225 mM,1.20 nm
same,"Binary Complex Signal (Δλ, nm)",KCl 225 mM,1.03 nm
same,Fold Enhancement (Ternary/Binary),KCl 250 mM,1.35
same,Fold Enhancement (Ternary/Binary),[9],7.02
same,"Ternary Complex Signal (Δλ, nm)",[9],0.98 nm
same,"Binary Complex Signal (Δλ, nm)",[9],0.14 nm
same,"Ternary Complex Signal (Δλ, nm)",KCl 250 mM,1.11 nm
same,"Binary Complex Signal (Δλ, nm)",KCl 250 mM,0.82 nm
same,Fold Enhancement (Ternary/Binary),KCl 275 mM,1.51
same,Fold Enhancement (Ternary/Binary),[10],9.07
same,"Ternary Complex Signal (Δλ, nm)",[10],0.88 nm
same,"Binary Complex Signal (Δλ, nm)",[10],0.10 nm
same,"Ternary Complex Signal (Δλ, nm)",KCl 275 mM,1.02 nm
same,"Binary Complex Signal (Δλ, nm)",KCl 275 mM,0.67 nm
same,Fold Enhancement (Ternary/Binary),KCl 300 mM,2.04
same,Fold Enhancement (Ternary/Binary),[11],8.34
same,"Ternary Complex Signal (Δλ, nm)",[11],0.76 nm
same,"Binary Complex Signal (Δλ, nm)",[11],0.09 nm
same,"Ternary Complex Signal (Δλ, nm)",KCl 300 mM,0.96 nm
same,"Binary Complex Signal (Δλ, nm)",KCl 300 mM,0.47 nm
same,Fold Enhancement (Ternary/Binary),KCl 325 mM,1.97
same,Fold Enhancement (Ternary/Binary),[12],8.97
same,"Ternary Complex Signal (Δλ, nm)",[12],0.65 nm
same,"Binary Complex Signal (Δλ, nm)",[12],0.07 nm
same,"Ternary Complex Signal (Δλ, nm)",KCl 325 mM,0.71 nm
same,"Binary Complex Signal (Δλ, nm)",KCl 325 mM,0.36 nm
same,Fold Enhancement (Ternary/Binary),KCl 350 mM,3.72
same,Fold Enhancement (Ternary/Binary),[13],7.94
same,"Ternary Complex Signal (Δλ, nm)",[13],0.54 nm
same,"Binary Complex Signal (Δλ, nm)",[13],0.07 nm
same,"Ternary Complex Signal (Δλ, nm)",KCl 350 mM,0.64 nm
same,"Binary Complex Signal (Δλ, nm)",KCl 350 mM,0.17 nm
same,Fold Enhancement (Ternary/Binary),KCl 375 mM,3.21
same,Fold Enhancement (Ternary/Binary),[14],12.46
same,"Ternary Complex Signal (Δλ, nm)",[14],0.45 nm
same,"Binary Complex Signal (Δλ, nm)",[14],0.04 nm
same,"Ternary Complex Signal (Δλ, nm)",KCl 375 mM,0.49 nm
same,"Binary Complex Signal (Δλ, nm)",KCl 375 mM,0.15 nm
same,Fold Enhancement (Ternary/Binary),KCl 400 mM,9.48
same,Fold Enhancement (Ternary/Binary),[15],13.75
same,"Ternary Complex Signal (Δλ, nm)",[15],0.37 nm
same,"Binary Complex Signal (Δλ, nm)",[15],0.03 nm
same,"Ternary Complex Signal (Δλ, nm)",KCl 400 mM,0.39 nm
same,"Binary Complex Signal (Δλ, nm)",KCl 400 mM,0.04 nm
same,Fold Enhancement (Ternary/Binary),KCl 425 mM,85.77
same,Fold Enhancement (Ternary/Binary),[16],13.28
same,"Ternary Complex Signal (Δλ, nm)",[16],0.31 nm
same,"Binary Complex Signal (Δλ, nm)",[16],0.02 nm
same,"Ternary Complex Signal (Δλ, nm)",KCl 425 mM,0.28 nm
same,"Binary Complex Signal (Δλ, nm)",KCl 425 mM,0.00 nm
same,Fold Enhancement (Ternary/Binary),KCl 450 mM,16.47
same,Fold Enhancement (Ternary/Binary),[17],7.24
same,"Ternary Complex Signal (Δλ, nm)",[17],0.25 nm
same,"Binary Complex Signal (Δλ, nm)",[17],0.03 nm
same,"Ternary Complex Signal (Δλ, nm)",KCl 450 mM,0.19 nm
same,"Binary Complex Signal (Δλ, nm)",KCl 450 mM,0.01 nm
same,Fold Enhancement (Ternary/Binary),KCl 475 mM,4.89
same,Fold Enhancement (Ternary/Binary),[18],4.54
same,"Ternary Complex Signal (Δλ, nm)",[18],0.22 nm
same,"Binary Complex Signal (Δλ, nm)",[18],0.05 nm
same,"Ternary Complex Signal (Δλ, nm)",KCl 475 mM,0.14 nm
same,"Binary Complex Signal (Δλ, nm)",KCl 475 mM,0.03 nm
same,Fold Enhancement (Ternary/Binary),KCl 500 mM,2.69
same,Fold Enhancement (Ternary/Binary),[19],2.97
same,"Ternary Complex Signal (Δλ, nm)",[19],0.21 nm
same,"Binary Complex Signal (Δλ, nm)",[19],0.07 nm
same,"Ternary Complex Signal (Δλ, nm)",KCl 500 mM,0.09 nm
same,"Binary Complex Signal (Δλ, nm)",KCl 500 mM,0.04 nm
same,salt concentration of maximum signal ratios for ternary over binary complexes,no glutamate salt,about 450 mM
